From US20230091848A1, “DISEASE DETECTION AND TREATMENT BASED ON PHENYLACETYL GLUTAMINE LEVELS” (The Cleveland Clinic Foundation, priority 2020, published 2023)

What was measured:
MEG01 cells [1] = test: Dynamic mass redistribution (DMR) in MEG01 cells; assay type: cell-based, human; conditions: for DMR response to ATP after ADR inhibitors: ATP 50 μM; for PAGln-induced DMR response after ADR inhibitors: PAGln 100 μM, 30 min
Method: Before proceeding for the experiments, cells were subjected to overnight incubation in reduced serum media opti-MEM. […] The cells were briefly centrifuged at room temperature at low speed (100 g for 10-15 sec) to allow settling down the cells at the bottom of the plate. After that, cells were allowed to temperature equilibrate for 1 h at room temperature prior to run DMR measurement. Firstly, basal DMR responses were graphed for around 15 min to obtain a baseline read that defines the zero level and also ensures the signal is stable. […] DMR response signal was recorded for 60-90 minutes post compound of interest addition.

α2A ADR = target: T1, α2A ADR (Homo sapiens, UniProt P08913); test: DMR in α2A-HEK293 (transient) cells; assay type: cell-based
T1 construct: DYK (FLAG, DYKDDDDK) (N); host or cells: HEK293 (transient, Lipofectamine 3000)
T1 sequence (P08913 1-465): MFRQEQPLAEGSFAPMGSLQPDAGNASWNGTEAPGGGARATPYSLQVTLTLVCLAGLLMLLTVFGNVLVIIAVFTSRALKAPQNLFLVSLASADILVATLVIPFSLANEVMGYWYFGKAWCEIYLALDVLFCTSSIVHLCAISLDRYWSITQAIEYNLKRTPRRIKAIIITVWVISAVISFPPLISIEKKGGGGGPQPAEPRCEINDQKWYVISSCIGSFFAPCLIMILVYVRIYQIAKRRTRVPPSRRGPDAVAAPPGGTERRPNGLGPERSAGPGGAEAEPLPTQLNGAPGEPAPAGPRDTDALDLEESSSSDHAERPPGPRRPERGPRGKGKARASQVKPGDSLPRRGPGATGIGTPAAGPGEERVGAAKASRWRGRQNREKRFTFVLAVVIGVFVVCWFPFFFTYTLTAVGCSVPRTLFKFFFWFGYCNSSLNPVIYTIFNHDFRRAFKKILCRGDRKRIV
Method: The cells were grown in DMEM (100 μL) media supplemented with FBS (10%), penicillin (100 U/mL) and streptomycin (100 μg/mL) in a humidified atmosphere at 37° C. in 5% CO2 for 1 day before proceeding for the DMR experiments. For gain of function studies of α2A ADR, parental HEK293 cells were transfected with pcDNA3.1(+)-N-DYK empty vector or with pcDNA3.1(+)-ADRA2A-N-DYK clone (clone id: OHu19050C-GenScript) using Lipofactamine 3000 Transfection kit-Invitrogen (Cat. L3000008). DMR studies were performed on transiently transfected cells after 2 days post transfection. Prior to run the DMR experiment, cells were washed with 1×HBSS buffer with HEPES (20 mM, pH 7.4) and allowed to temperature equilibrate for 1 h at room temperature in 100 μL of the same buffer. Basal DMR response were graphed for around 15 min to obtain a baseline read that defines the zero level and also ensures the signal is stable.

α2B ADR = target: T2, α2B ADR (Homo sapiens, UniProt P18089); test: DMR in α2B-HEK293 (stable) cells; assay type: cell-based
T2 construct: expressed in transfected cells
T2 sequence (P18089 1-450): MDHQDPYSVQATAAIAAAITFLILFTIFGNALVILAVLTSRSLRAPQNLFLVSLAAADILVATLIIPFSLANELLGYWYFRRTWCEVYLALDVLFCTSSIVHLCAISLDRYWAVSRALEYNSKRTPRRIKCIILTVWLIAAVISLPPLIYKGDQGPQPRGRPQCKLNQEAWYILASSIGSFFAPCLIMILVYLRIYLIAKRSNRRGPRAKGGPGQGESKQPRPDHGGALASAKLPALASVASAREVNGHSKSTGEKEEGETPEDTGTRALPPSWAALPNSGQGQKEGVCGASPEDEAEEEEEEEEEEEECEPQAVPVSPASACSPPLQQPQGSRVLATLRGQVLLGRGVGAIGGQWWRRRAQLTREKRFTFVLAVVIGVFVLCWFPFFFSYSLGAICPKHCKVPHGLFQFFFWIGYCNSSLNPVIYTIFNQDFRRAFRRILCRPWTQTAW

[2] = test system: human platelet rich plasma (PRP); test: Platelet aggregometry in platelet rich plasma; assay type: cell-based; conditions: inhibitor 10 μM; PAGln 100 μM; ADP 2 μM
Method: ADP (up to 4 μM), TRAP6 (up to 10 μM) and collagen (up to 1.0 μg/mL) were used as indicated to initiate aggregation with constant stirring (600 rpm).

MEG01 cells [3] = test: cAMP assay in MEG01 cells; assay type: cell-based, human
Method: Real-time (RT) PCR in MEG01 cells: Total RNA was isolated from MEG01 cells following TRIZOL RNA isolation protocol post 40 h of siRNA transfection. […] Real time (RT) PCR was carried out following TaqMan Gene Expression Assays protocol using RT primers and probes of ADRA2A (assay Id Hs01099503_s1), ADRA2B (assay Id Hs00265081 s1) and ADRB2 (assay Id Hs00240532_s1) from ThermoFisher Scientific. cAMP assay in MEG01, Platelets and HEK293 cells: Intracellular cAMP levels were measured using CatchPoint Cyclic-AMP Fluorescent Assay Kit from molecular devices (Cat. R8089). Briefly, MEG01 cells were washed with 1×HBSS buffer with HEPES (20 mM; pH 7.4) and re-suspended in stimulation buffer (1×HBSS, HEPES (20 mM); pH 7.4, IBMX (0.5 mM), Rolipram (0.1 mM) and BSA (0.1%)). The cells were further seeded into 96 well cell culture plates with a density of ˜100 k cells per well in 100 μL stimulation buffer. Similarly, human washed platelets re-suspended very gently in stimulation buffer and seeded into a 96-well cell culture plates with ˜4-6 million platelets per well in 100 μL stimulation buffer. Both the MEG01 cells and platelets were kept thereafter at 37° C. incubator for 10 min before addition of the inhibitors or test compounds. Following incubation with stimulation buffer, 10 μL (10× concentration) of modulators/inhibitors (when necessary) were added and kept for 15 min at 37° C. […] The test compounds were made in buffer T (1×HBSS, HEPES (20 mM); pH 7.4, IBMX (0.5 mM) and Rolipram (0.1 mM)). The reaction was stopped by adding 50 μL of lysis buffer (provided in the kit CatchPoint Cyclic-AMP Fluorescent Assay Kit Cat. R8089-Molecular Devices), further added with IBMX (0.5 mM) and Rolipram (0.1 mM)) and agitated for 10 min in a plate shaker to facilitate cell lysis. Lysed cells are immediately proceeded to cAMP assay. For the quantification of cAMP, the lysed sample (40 μL), buffer control and cAMP calibrators were added in appropriate wells of a 96-well clear bottom, black wall cAMP assay plates (provided in the kit). Thereafter, reconstituted rabbit anti-cAMP antibody (40 μL) was added to all the wells and mix for 5 min on a plate shaker to ensure mixing. In the next step, reconstituted HRP-cAMP conjugate (40 μL) was added to every well, mixed properly and kept at room temperature for 2 h. The plate contents were aspirated thereafter and washed with wash buffer (300 μL (provided in the kit)) 4 times. Spotlight red substrate (provided in the kit) was added to each well minimizing the time between starting and finishing in dark. The plate was covered with aluminum foil and left at room temperature for at least 10 min before reading fluorescence intensity in a FlexStation 3 Multi-Mode Microplate Reader-Molecular devices. […] For cAMP assay in adherent cell lines, parental HEK293, and β2-HEK293 (stable) cells were seeded into 96-well cell culture microplates with approximately 50 k cells per well in DMEM (100 μL) media supplemented with FBS (10%), penicillin (100 U/mL) and streptomycin (100 μg/mL) in a humidified atmosphere at 37° C. in 5% CO2. Cells were grown for 24 h before proceeding for cAMP experiment following similar method as described for MEG01 cells. Intracellular Ca^2+ measurement: Intracellular Ca^2+ in MEG01, HEL92.1.7, parental HEK293, β2-HEK293 (stable) cells, empty vector (EV) transfected HEK293 cells, ADRA2A transfected HEK293 cells and in α2B-HEK293 stable cells was measured using FLIPR Calcium 5 Assay Kit-Molecular devices (Cat. R8186). […]

[4] = test system: FeCl3-induced carotid artery injury model; test: Carotid artery FeCl3 injury thrombosis assay; assay type: in vivo, mice; conditions: carvedilol 1.5 g/kg for one week; PAGln i.p.
Method: Briefly, rhodamine 6G (100 μL; 0.5 mg/mL) was injected directly into the right jugular vein to label platelets. The left carotid artery was exposed and injured by placing a FeCl3-soaked filter paper for 1 minute. […] Time to cessation of blood flow through clot formation for all studies was determined by visual inspection by two different investigators. End points were set as cessation of blood flow for 30 seconds to 30 minutes.

[5] = vs parental HEK293, PAGln 100 μM, B-HT933 50 μM

N[C@@H](Cc1ccccc1)C(=O)O [phenylalanine]
DMR response (MEG01 cells [1]; addition of ligand): displayed no DMR response

CCN1CCc2nc(N)oc2CC1 [B-HT933]
agonist-evoked DMR response (α2A ADR; [5]): elevated B-HT933-elicited DMR response
agonist-evoked DMR response (α2B ADR; [5]): elevated B-HT933-elicited DMR response

CC(C)NCC(O)COc1cccc2ccccc12 (stereo not drawn) [propranolol]
PAGln induced hyperresponsiveness of platelet aggregation [2]: attenuated the PAGln induced hyperresponsiveness
DMR response to ATP after ADR inhibitors (MEG01 cells [1]; inhibitor 10 μM): remained unchanged
DMR response of isoproterenol (ISO) after ADR inhibitors (MEG01 cells [1]; ISO 10 μM, inhibitor 10 μM): diminished
PAGln-induced DMR response after ADR inhibitors (MEG01 cells [1]; inhibitor 10 μM): substantially reduced
intracellular cAMP production after ISO treatment, with ADR inhibitors (MEG01 cells [3]): reduced
PAGln induced intracellular cAMP production after ADR inhibitors (MEG01 cells [3]; PAGln 100 μM, 5 min exposure, inhibitor 10 μM): inhibited PAGln (5 min exposure) induced intracellular cAMP production

COC1(C2=NCCN2)COc2ccccc2O1 (stereo not drawn) [RX821002]
PAGln induced hyperresponsiveness of platelet aggregation [2]: attenuated the PAGln induced hyperresponsiveness
DMR response to ATP after ADR inhibitors (MEG01 cells [1]; inhibitor 10 μM): remained unchanged
DMR response of B-HT933 after ADR inhibitor (MEG01 cells [1]; B-HT933 50 μM, inhibitor 10 μM): appropriately inhibited
PAGln-induced DMR response after ADR inhibitors (MEG01 cells [1]; inhibitor 10 μM): substantially reduced
B-HT933-elicited DMR response after ADR inhibitor (α2A ADR): attenuated by RX821002
PAGln-induced DMR response after ADR inhibitor (α2A ADR; inhibitor 10 μM, 30 min): reversed
B-HT933-elicited DMR response after ADR inhibitor (α2B ADR): attenuated by RX821002
PAGln-induced DMR response after ADR inhibitor (α2B ADR; inhibitor 10 μM, 30 min): reversed

COc1ccccc1OCCNCC(O)COc1cccc2[nH]c3ccccc3c12 (stereo not drawn) [carvedilol]
pro-thrombotic effect of PAGln on clot formation rate and occlusion time [4]: reversed by pretreatment of mice with carvedilol
